Test [1] has as its target 5-HT2C serotonin receptors (Homo sapiens, UniProt P28335). Briefly: Radioligand binding assay. The protocol: (§1) The activity of nepicastat at twelve selected enzymes and receptors was determined using established assays. Binding data were analyzed by iterative curve-fitting to a four parameter logistic equation. Ki values were calculated from IC50 values using the Cheng-Prusoff equation. Enzyme inhibitory activity was expressed as IC50 (concentration required to produce 50% inhibition of enzyme activity).
(§2) The activity of nepicastat at eleven different enzymes was determined using established assays. The affinity of nepicastat for thirteen selected receptors was determined by radioligand binding assays using standard filtration techniques and membrane preparations. Binding data were analyzed by iterative curve fitting to a four parameter logistic equation. Ki values were calculated using the Cheng-Prusoff equation.
(§3) The binding affinity for nepicastat was screened at selected receptors. […] Thus nepicastat and its primary metabolite were not potent inhibitors for the receptors listed above.

The target of the next test is D2 dopamine receptors (Homo sapiens, UniProt P14416). Briefly: Radioligand binding assay. The protocol: as §1, §2, §3
The next test deals with D1 dopamine receptors (Homo sapiens, UniProt P21728). Description: Radioligand binding assay. The protocol:
as §1, §2, §3

The target of test [2] is 5-HT2A serotonin receptors (Homo sapiens, UniProt P28223). Briefly: Radioligand binding assay. Here is the method:
as §1, §2, §3

In test [3] the target is 5-HT1A serotonin receptors (Homo sapiens, UniProt P08908). Briefly: Radioligand binding assay. Here is the method: as §1, §2, §3
The target in a further test is M1 muscarinic receptors (Homo sapiens, UniProt P11229). Briefly: Radioligand binding assay. Here is the method:
as §1, §2, §3

The subject of test [4] is spontaneous hypertensive rats. Description: SCH-23390 pretreatment study in restrained SHRs. It counts as in vivo. The note with it: nepicastat 10 mg/kg po. An excerpt:
Male, spontaneous hypertensive rats (280-345 g; Charles River Labs, Kingston, N.Y.) were fasted overnight then anesthetized with ether. A femoral artery and femoral vein were cannulated with PE50 tubing for recording of blood pressure and administration of compounds, respectively. Animals were then placed in MAYO restrainers and their feet loosely taped to the restrainer. Heparinized saline (50 units sodium heparin/ml) was used to maintain patency of each cannula throughout the experiment. The following parameters were continuously recorded using Modular Instruments MI^2 BioReport™ software installed on an IBM personal computer: mean arterial pressure (MAP), heart rate (HR), and the change from baseline for each parameter at specified time points in the experiment.
All compounds were dissolved on the day of use. Nepicastat was dissolved in deionized water (vehicle) to a free base concentration of 1 mg/ml. Oral dosing volume for nepicastat or vehicle was 10 ml/kg. SCH-23390 was dissolved in saline (vehicle) to a free base concentration of 0.2 mg/ml. […] or saline were administered intravenously as a bolus in a volume of 1.0 ml/kg followed by 0.2 ml flush of isotonic saline.
Following surgical preparation, each animal was allowed a minimum one hour recovery period. Animals were randomly assigned to four treatment groups: vehicle (iv)/vehicle (po); vehicle (iv)/nepicastat (po); SCH-23390 (iv)/vehicle (po); or SCH-23390 (iv)/nepicastat (po). Once animals were stabilized (minimum one hour), baseline blood pressure and heart rate was determined by taking an average of each parameter over a 15 min period of time. Once baseline blood pressure and heart rate were established, animals were dosed intravenously with either SCH-23390 (200 μg/kg) or vehicle (saline, 1 ml/kg). Fifteen minutes later, animals were orally dosed with either nepicastat (10 mg/kg) or vehicle (deionized water, 10 ml/kg).
Recorded parameters were measured 15 min prior to intravenous dosing to establish baseline blood pressure and heart rate. Recorded parameters were then measured at 5, 10, and 15 min following intravenous administration of SCH-23390 or vehicle. Following oral administration of nepicastat or vehicle, recorded parameters were measured at 15, 30, 60, 90, 120, 150, 180, 210, and 240 min.
At the end of the experiment, each animal was anesthetized with halothane and euthanized via decapitation. The cortex, left ventricle (apex), and mesenteric artery were dissected out, weighed, and fixed in 0.4 M perchloric acid. Tissues were then frozen in liquid nitrogen and stored at −70° C. Biochemical analysis are performed on these tissues at a later date to determine catecholamine levels including dopamine and norepinephrine levels. Blood pressure and heart rate were analyzed separately. The change from baseline for blood pressure and heart rate were analyzed by an analysis of variance (ANOVA) with effects for treatment, time, and their interaction. This analysis was performed both for the post-iv time period and for the post-oral time period. Further analyses were performed at each time by an ANOVA with a main effect for […]. Pairwise comparisons were performed following each ANOVA by Fisher's LSD strategy with a Bonferroni correction when the overall treatment effect was not significant.
An additional analysis was performed to compare the baseline means of each treatment group by an ANOVA with a main effect for treatment and subsequent pairwise comparisons. […]

A further test has as its target β1 adrenoceptors (Homo sapiens, UniProt P08588). Briefly: Radioligand binding assay. The protocol:
as §1, §2

The next test addresses α1B adrenoceptors (Homo sapiens, UniProt P35368). Briefly: Radioligand binding assay. The protocol:
as §1, §2

The target of the next test is μ opioid receptors (Homo sapiens, UniProt P35372). Briefly: Radioligand binding assay. Here is the method:
as §1, §2

A further test addresses α2B adrenoceptors (Homo sapiens, UniProt P18089). Briefly: Radioligand binding assay. The protocol: as §1, §2
The target of another test is β2 adrenoceptors (Homo sapiens, UniProt P07550). Description: Radioligand binding assay. Here is the method:
as §1, §2

The target in a further test is α1A adrenoceptors (Homo sapiens, UniProt P35348). Briefly: Radioligand binding assay. Here is the method:
as §1, §2

A further test addresses α2A adrenoceptors (Homo sapiens, UniProt P08913). Description: Radioligand binding assay. Here is the method: as §1, §2

Entries after “also recorded” stand apart in the source; their conditions may differ. Bounds are passed on as bounds.

Chain of 5-HT2A serotonin receptors (P28223 whole entry): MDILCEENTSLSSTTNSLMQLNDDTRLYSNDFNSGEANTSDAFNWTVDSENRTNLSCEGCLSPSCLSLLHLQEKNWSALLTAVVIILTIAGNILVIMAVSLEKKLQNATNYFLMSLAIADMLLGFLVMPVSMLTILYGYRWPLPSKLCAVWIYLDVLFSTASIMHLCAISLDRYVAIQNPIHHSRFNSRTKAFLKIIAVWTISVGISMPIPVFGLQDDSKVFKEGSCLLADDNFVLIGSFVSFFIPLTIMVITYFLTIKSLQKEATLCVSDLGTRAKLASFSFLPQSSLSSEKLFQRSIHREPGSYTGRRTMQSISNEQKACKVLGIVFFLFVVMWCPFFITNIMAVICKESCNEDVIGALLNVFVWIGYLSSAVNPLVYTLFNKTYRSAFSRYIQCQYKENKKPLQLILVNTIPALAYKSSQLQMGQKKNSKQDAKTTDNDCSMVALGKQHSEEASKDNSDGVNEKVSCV
Chain of α2B adrenoceptors (P18089 whole entry): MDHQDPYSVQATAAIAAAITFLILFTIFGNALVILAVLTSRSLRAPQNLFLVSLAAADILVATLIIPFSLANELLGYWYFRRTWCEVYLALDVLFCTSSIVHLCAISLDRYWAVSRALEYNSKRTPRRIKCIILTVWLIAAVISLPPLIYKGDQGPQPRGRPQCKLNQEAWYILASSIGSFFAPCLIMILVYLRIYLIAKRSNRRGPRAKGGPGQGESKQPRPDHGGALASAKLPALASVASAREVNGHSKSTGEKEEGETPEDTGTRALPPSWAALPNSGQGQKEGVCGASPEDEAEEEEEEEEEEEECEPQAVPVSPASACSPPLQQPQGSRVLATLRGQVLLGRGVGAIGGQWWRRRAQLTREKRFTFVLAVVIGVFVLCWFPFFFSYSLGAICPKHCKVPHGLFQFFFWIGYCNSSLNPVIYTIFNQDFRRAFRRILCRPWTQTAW
Chain of α2A adrenoceptors (P08913 whole entry): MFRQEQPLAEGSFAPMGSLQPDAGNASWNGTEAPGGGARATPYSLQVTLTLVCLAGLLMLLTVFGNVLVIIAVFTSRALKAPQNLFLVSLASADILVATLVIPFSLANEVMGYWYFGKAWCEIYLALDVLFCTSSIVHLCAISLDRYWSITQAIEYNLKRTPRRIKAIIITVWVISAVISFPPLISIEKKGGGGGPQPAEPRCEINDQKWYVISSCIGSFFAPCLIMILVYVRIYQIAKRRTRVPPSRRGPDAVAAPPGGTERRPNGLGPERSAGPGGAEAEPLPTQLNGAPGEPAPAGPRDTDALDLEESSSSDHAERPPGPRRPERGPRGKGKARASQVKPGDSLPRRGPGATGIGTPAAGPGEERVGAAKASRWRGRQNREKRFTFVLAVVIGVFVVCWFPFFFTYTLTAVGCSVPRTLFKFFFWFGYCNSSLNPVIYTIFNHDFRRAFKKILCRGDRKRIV
Chain of D2 dopamine receptors (P14416 whole entry): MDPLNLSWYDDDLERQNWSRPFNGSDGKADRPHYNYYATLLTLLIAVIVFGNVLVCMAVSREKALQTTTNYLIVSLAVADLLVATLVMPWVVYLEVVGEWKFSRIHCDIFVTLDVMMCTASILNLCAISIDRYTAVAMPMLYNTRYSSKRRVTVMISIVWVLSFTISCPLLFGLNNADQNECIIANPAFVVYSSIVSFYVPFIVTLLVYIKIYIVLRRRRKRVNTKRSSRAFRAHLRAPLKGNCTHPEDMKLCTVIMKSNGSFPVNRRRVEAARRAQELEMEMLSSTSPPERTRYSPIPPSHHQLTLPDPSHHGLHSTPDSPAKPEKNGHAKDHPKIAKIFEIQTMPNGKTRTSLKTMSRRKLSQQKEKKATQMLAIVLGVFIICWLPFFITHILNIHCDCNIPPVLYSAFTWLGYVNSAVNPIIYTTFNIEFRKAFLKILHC
Chain of α1A adrenoceptors (P35348 whole entry): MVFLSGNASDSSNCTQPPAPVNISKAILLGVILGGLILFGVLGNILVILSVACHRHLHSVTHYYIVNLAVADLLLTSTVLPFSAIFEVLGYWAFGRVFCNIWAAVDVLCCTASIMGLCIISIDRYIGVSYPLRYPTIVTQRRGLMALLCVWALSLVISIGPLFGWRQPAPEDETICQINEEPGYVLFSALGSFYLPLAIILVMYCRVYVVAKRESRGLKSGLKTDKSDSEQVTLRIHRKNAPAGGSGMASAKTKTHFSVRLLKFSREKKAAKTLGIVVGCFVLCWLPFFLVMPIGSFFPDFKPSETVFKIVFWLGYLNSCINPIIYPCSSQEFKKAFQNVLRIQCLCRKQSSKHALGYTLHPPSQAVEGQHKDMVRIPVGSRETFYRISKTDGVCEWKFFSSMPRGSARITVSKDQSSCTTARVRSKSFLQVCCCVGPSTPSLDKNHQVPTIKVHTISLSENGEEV
Chain of 5-HT2C serotonin receptors (P28335 33-458): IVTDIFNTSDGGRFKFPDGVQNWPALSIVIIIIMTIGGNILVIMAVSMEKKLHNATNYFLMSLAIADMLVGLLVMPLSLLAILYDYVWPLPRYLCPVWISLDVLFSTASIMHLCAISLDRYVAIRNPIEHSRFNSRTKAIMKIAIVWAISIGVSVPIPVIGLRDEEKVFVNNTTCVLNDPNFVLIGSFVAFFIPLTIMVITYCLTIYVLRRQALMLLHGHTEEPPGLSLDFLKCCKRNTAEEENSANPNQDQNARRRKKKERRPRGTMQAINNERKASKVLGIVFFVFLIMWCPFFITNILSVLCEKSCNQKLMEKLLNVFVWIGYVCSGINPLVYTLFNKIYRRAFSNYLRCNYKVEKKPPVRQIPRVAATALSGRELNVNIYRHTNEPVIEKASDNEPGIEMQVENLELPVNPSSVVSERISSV
Chain of α1B adrenoceptors (P35368 whole entry): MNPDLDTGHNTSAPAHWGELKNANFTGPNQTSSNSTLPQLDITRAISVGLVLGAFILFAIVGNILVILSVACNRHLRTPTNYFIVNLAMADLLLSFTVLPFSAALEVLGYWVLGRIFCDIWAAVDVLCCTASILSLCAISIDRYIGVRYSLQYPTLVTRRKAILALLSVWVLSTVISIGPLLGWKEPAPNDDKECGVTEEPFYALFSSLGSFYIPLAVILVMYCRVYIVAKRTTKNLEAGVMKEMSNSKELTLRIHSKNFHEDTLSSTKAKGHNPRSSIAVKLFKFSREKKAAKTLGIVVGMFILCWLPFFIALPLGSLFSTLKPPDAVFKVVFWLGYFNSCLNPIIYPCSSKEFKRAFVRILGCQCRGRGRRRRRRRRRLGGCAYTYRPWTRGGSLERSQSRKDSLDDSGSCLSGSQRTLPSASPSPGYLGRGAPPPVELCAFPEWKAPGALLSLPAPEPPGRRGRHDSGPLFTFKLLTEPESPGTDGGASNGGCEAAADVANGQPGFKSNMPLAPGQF
Chain of μ opioid receptors (P35372 whole entry): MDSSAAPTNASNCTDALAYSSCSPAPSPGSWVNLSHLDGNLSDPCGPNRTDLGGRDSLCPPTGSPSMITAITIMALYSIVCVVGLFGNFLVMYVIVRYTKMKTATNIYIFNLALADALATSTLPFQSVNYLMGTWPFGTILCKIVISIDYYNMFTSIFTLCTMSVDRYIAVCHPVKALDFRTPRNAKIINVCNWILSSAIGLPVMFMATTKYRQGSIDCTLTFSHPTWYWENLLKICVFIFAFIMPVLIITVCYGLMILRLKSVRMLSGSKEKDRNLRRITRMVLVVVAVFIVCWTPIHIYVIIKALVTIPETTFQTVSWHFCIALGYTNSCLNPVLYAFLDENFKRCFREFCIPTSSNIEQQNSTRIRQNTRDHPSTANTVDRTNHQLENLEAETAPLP
Chain of 5-HT1A serotonin receptors (P08908 whole entry): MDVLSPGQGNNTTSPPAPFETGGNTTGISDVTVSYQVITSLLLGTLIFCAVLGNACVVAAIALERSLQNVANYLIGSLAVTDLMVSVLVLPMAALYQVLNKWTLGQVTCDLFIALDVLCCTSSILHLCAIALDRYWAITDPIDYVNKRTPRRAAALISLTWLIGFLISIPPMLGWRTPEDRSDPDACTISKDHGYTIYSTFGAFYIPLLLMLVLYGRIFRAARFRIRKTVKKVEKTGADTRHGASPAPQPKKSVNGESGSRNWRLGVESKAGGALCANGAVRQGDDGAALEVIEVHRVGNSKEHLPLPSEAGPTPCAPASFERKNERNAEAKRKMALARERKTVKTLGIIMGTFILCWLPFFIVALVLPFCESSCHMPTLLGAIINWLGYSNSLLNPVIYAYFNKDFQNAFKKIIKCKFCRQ
Chain of β2 adrenoceptors (P07550 whole entry): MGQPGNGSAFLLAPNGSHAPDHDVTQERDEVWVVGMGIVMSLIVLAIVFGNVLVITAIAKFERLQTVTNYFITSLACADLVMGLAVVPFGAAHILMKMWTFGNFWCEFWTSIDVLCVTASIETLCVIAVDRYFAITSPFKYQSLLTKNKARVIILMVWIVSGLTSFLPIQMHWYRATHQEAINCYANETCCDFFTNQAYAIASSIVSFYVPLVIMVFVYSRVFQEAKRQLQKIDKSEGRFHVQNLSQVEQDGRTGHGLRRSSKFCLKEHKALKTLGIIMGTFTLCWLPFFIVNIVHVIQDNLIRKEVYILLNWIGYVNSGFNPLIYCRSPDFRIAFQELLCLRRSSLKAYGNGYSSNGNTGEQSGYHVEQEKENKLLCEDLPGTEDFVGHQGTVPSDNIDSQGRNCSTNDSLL
Chain of β1 adrenoceptors (P08588 whole entry): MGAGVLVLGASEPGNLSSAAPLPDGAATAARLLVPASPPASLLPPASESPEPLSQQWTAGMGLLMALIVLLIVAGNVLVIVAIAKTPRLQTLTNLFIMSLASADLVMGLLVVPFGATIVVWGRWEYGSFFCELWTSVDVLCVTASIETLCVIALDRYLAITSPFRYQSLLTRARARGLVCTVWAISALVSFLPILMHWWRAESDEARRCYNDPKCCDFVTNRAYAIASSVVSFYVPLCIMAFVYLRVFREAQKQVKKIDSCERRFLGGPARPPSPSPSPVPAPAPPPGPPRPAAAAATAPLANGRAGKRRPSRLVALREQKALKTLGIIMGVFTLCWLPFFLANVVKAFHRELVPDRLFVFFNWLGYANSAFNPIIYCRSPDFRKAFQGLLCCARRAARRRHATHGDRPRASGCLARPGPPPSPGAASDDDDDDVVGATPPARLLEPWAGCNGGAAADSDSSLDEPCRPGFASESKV

Usually Ki stands for the equilibrium dissociation constant of an inhibitor or competing ligand from its target. With `Cl.NCc1c[nH]c(=S)n1[C@H]1CCc2c(F)cc(F)cc2C1` [nepicastat, (S)-5-Aminomethyl-1-(5,7-difluoro-1,2,3,4-tetrahydronaphth-2-yl)-2,3-dihydro-2-thioxo-1H-imidazole hydrochloride], the Ki (in [1]; at D2 dopamine receptors; at D1 dopamine receptors; in [2]; in test [3]; at M1 muscarinic receptors) was more than 10 µM in each case. The Ki on β1 adrenoceptors, at α1B adrenoceptors, on μ opioid receptors, at α2B adrenoceptors, at β2 adrenoceptors and on α1A adrenoceptors was more than 10 µM each time. In addition, the Ki at α2A adrenoceptors was more than 10 µM. Moreover, in [4] (SCH-23390 200 μg/kg iv), the “heart rate vs vehicle” value is reported as “did not decrease the heart rate as much as observed in vehicle treated animals”. Moreover, in test [4], the mean arterial pressure result is reported as “significant decrease (p<0.05) in mean arterial pressure”. The “time post dose by which MAP decrease was significant” value in test [4] is not above 30 min. Further, the “antihypertensive effect of nepicastat after pretreatment with SCH-23390” value in [4] (SCH-23390 iv, hydrochloride) was “not attenuated; also recorded: did not significantly attenuate”.
